*: point of attachment. NHNH2 = NN*
What was measured:
Type in all cases: cell-based
[1] = test system: A549 cells expressing EGFP; experiment: EGFP-targeting siRNA delivery (GFP silencing vs siMOCK), A549; conditions: for percentage of GFP-silencing relative to siMOCK: A549 cells
Experimental: (§1) To generate an EGFP expressing HeLa cell line, HeLa cells were transfected with EGFP pDNA (pEGFP-C1, Clontech) and stable transfectants were selected with 400 μg/mL of G-418 (Millipore). Green clones were selected by epifluorescence microscopy and tested for EGFP expression stability through several passages. […] All other EGFP-expressing cell lines were obtained in a similar way from parent non-EGFP-expressing cell lines.
Cells expressing EGFP were seeded in a 96 well plate the day before the experiment at a concentration of 50,000 cell/mL (100 μL/w) in DMEM+10% FBS+1% Gln-Abt. For robotic library screening, the delivery of an EGFP-targeting siRNA (EGFP: enhanced green fluorescent protein, Ambion® Silencer® GFP Positive Control siRNA (siGFP) (AM4626)) in six different cell lines expressing EGFP was performed. […] The mixture was shaken for 30 min at room temperature (rt) before the addition to the cells. The cell medium was aspirated, and cells were washed twice with PBS. Finally, 50 μL of the solution of siRNA/amphiphile complexes were added to the cells and incubated for 4 h. After transfection, the medium was replaced by 100 μL of fresh DMEM supplemented with 10% FBS. The fluorescence knockdown was quantified after 72 h in a plate reader, by comparison with cells transfected with a non-targeting siRNA control (siMOCK, Silencer™ Negative Control No. 1 siRNA (siMOCK) (AM4611)). EGFP knockdown was compared with Lipofectamine® RNAiMAX silencing efficiency (30-60% depending on cell line, defined with a numeric value in the below tables). All experiments were done in triplicate.
Tables 1-7: RLuc (pDNA) or EGFP (mRNA) expression levels were normalized to Lipofectamine reagents (value=1) and expressed as fold-times signal increase. In the case of siRNA, the siRNA treated cells fluorescence was compared with siMOCK control fluorescence, while Cas9-RNP mediated knockout was measured against the fluorescence of untreated cells. In both siRNA and Cas9-RNP, values are expressed as % fluorescence reduction. Amphiphile concentration was 5 μM in all cases. All experiments were performed in triplicate.
Tables 20-25 show the mean (triplicates) percentage of GFP-silencing, accounted by fluorescence intensity decrease relative to a non-targeting siRNA (siMOCK) control, measured after the transfection of siRNA by different amphiphiles at different concentrations in a variety of cell lines. Background values, accounted by untreated control cells, were subtracted for processing.

[2] = test system: HCT116 cells expressing EGFP; experiment: Cas9-RNP delivery against EGFP (gene editing, plate reader), HCT116
Experimental: as §1
(§2) Cells expressing EGFP were seeded in a 96 well plate the day before the experiment at a concentration of 50,000 cell/mL (100 μL/w) in DMEM+10% FBS+1% Gln-Abt. For robotic library screening, the delivery of Cas9-RNP against EGFP (RNP designed to knock-out the gene encoding for the enhanced green fluorescent protein (EGFP)) was performed. For RNP assembly, 9.2 μL of crRNA and 9.2 μL of tracrRNA were mixed in 211.6 μL of Nuclease-Free Duplex Buffer (IDT), incubated for 5 min at 95° C. and slowly cooled at rt (see I. Lostalé-Seijo, et al. Peptide/Cas9 nanostructures for ribonucleoprotein cell membrane transport and gene edition, Chem. Sci., 2017). Cas9 protein was dissolved in DMEM at a final concentration of 4 μM and equal volumes of the RNA complex and Cas9 were mixed and incubated for 5 min at rt. 75 μL of the corresponding amphiphile concentrations were added to 5 μL of RNP at 2 μM. The mixture was shaken for 30 min at room temperature before the addition to the cells. The cell medium was aspirated, and cells were washed twice with PBS. Cells were covered with 30 μL of DMEM and 20 μL of the RNP/amphiphile complexes were added to the cells (final peptide concentrations=2.5, 5 and 10 μM; final Cas9-RNP concentration=50 nM) and incubated for 4 h. After the incubation, the medium was replaced by 100 μL of fresh DMEM supplemented with 10% FBS. The total EGFP fluorescence was quantified after 72 h in a plate reader (FIG. 2, Table 1 (right) and Table 6). All experiments were done in triplicate. […]
(§3) Tables 26-31 show the mean (triplicates) percentage of gene editing, accounted by GFP fluorescence intensity decrease (% of reduction), measured after the transfection of Cas9-RNP by different amphiphiles at different concentrations in a variety of cell lines. Background values, accounted by untreated control cells, were subtracted for processing.

[3] = test system: HepG2 cells expressing EGFP; experiment: Cas9-RNP delivery against EGFP (gene editing, plate reader), HepG2
Experimental: as §1, §2, §3

Substance | percentage of GFP-silencing relative to siMOCK ([1]; Dodecanal, 10 μM) | percentage of GFP-silencing relative to siMOCK ([1]; Dodecanal, 15 μM) | percentage of GFP-silencing relative to siMOCK ([1]; Myristoleyl, 10 μM) | percentage of GFP-silencing relative to siMOCK ([1]; Myristoleyl, 15 μM) | percentage of GFP-silencing relative to siMOCK ([1]; Oleyl, 5 μM) | percentage of GFP-silencing relative to siMOCK ([1]; Oleyl, 10 μM) | percentage of GFP-silencing relative to siMOCK ([1]; Oleyl, 15 μM) | percentage of GFP-silencing relative to siMOCK ([1]; Palmitoleyl, 15 μM) | percentage of GFP-silencing relative to siMOCK ([1]; Petroselinyl, 10 μM) | percentage of GFP-silencing relative to siMOCK ([1]; Petroselinyl, 15 μM) | percentage of gene editing, GFP fluorescence intensity decrease (% of reduction) ([2]; Dodecanal, 5 μM) | percentage of gene editing, GFP fluorescence intensity decrease (% of reduction) ([2]; Dodecanal, 10 μM) | percentage of gene editing, GFP fluorescence intensity decrease (% of reduction) ([2]; Dodecanal, 15 μM) | percentage of gene editing, GFP fluorescence intensity decrease (% of reduction) ([2]; Myristoleyl, 5 μM) | percentage of gene editing, GFP fluorescence intensity decrease (% of reduction) ([2]; Oleyl, 5 μM) | percentage of gene editing, GFP fluorescence intensity decrease (% of reduction) ([2]; Palmitoleyl, 5 μM) | percentage of gene editing, GFP fluorescence intensity decrease (% of reduction) ([2]; Palmitoleyl, 15 μM) | percentage of gene editing, GFP fluorescence intensity decrease (% of reduction) ([3]; Dodecanal, 10 μM) | percentage of gene editing, GFP fluorescence intensity decrease (% of reduction) ([3]; Dodecanal, 15 μM) | percentage of gene editing, GFP fluorescence intensity decrease (% of reduction) ([3]; Myristoleyl, 10 μM) | also measured
Ac-RHLK*RLK*RRLK*RL-NH2 (Ac-RHLKRLKRRLKRL-NH2; not fully specified (residues 4, 7, 11); printed as Ac-RHLK*RLK*RRLK*RL-NH2; also: linker on K* not given here) [13(Arg-His)] | 28% | 18% | 17% | 5% | 23% | 22% | 15% | 14% | 20% | 11% | 4% | 5% | 16% | −7% | 5% | 30% | 9% | −10% | 14% | 33% | percentage of gene editing, GFP fluorescence intensity decrease (% of reduction) ([2]; Myristoleyl, 15 μM): 29%; percentage of gene editing, GFP fluorescence intensity decrease (% of reduction) ([2]; Palmitoleyl, 10 μM): 22%; percentage of gene editing, GFP fluorescence intensity decrease (% of reduction) ([2]; Petroselinyl, 10 μM): 6%; percentage of gene editing, GFP fluorescence intensity decrease (% of reduction) ([3]; Dodecanal, 5 μM): −31%; percentage of gene editing, GFP fluorescence intensity decrease (% of reduction) ([3]; Myristoleyl, 5 μM): 10%; percentage of gene editing, GFP fluorescence intensity decrease (% of reduction) ([3]; Oleyl, 10 μM): −4%; percentage of gene editing, GFP fluorescence intensity decrease (% of reduction) ([3]; Oleyl, 15 μM): 15%; percentage of gene editing, GFP fluorescence intensity decrease (% of reduction) ([3]; Palmitoleyl, 5 μM): −8%; percentage of gene editing, GFP fluorescence intensity decrease (% of reduction) ([3]; Palmitoleyl, 10 μM): 26%; percentage of gene editing, GFP fluorescence intensity decrease (% of reduction) ([3]; Palmitoleyl, 15 μM): 7%; percentage of gene editing, GFP fluorescence intensity decrease (% of reduction) ([3]; Petroselinyl, 5 μM): −27%
Ac-RRHK*RLK*RRLK*RL-NH2 (Ac-RRHK(NHNH2)RLK(NHNH2)RRLK(NHNH2)RL-NH2; not fully specified; printed as Ac-RRHK*RLK*RRLK*RL-NH2; also: K*4,K*7,K*11: native or modified lysine (ε-amide to a linker)) [13(Leu-His)] | 10% | 55% | 10% | 14% | 29% | 20% | 17% | 50% | 38% | 76% | −28% | −5% |  | 22% | 7% | 4% | 0% | −37% |  | 11% | siRNA % fluorescence reduction vs siMOCK ([1]; A549, amphiphile 5 μM, hydrophobic tail): 76%; percentage of GFP-silencing relative to siMOCK ([1]; Palmitoleyl, 10 μM): 54%; percentage of gene editing, GFP fluorescence intensity decrease (% of reduction) ([2]; Myristoleyl, 10 μM): −105%; percentage of gene editing, GFP fluorescence intensity decrease (% of reduction) ([2]; Petroselinyl, 5 μM): 18%; percentage of gene editing, GFP fluorescence intensity decrease (% of reduction) ([3]; Oleyl, 15 μM): −22%; percentage of gene editing, GFP fluorescence intensity decrease (% of reduction) ([3]; Palmitoleyl, 5 μM): −36%; percentage of gene editing, GFP fluorescence intensity decrease (% of reduction) ([3]; Palmitoleyl, 10 μM): 8%; percentage of gene editing, GFP fluorescence intensity decrease (% of reduction) ([3]; Palmitoleyl, 15 μM): 13%; percentage of gene editing, GFP fluorescence intensity decrease (% of reduction) ([3]; Petroselinyl, 5 μM): −7%; percentage of gene editing, GFP fluorescence intensity decrease (% of reduction) ([3]; Petroselinyl, 10 μM): 9%; percentage of gene editing, GFP fluorescence intensity decrease (% of reduction) ([3]; Petroselinyl, 15 μM): 14%
Ac-RK*LRRLLRK*-NH2 (Ac-RK(NHNH2)LRRLLRK(NHNH2)-NH2; not fully specified; printed as Ac-RK*LRRLLRK*-NH2; also: K*2,K*9: native or modified lysine (ε-amide to a linker)) [Peptide 9.2] | 29% | 16% | −6% | −14% |  |  |  |  |  |  | −34% | −15% | −22% |  |  |  |  | −35% | −35% | −17% | percentage of GFP-silencing relative to siMOCK ([1]; Dodecanal, 5 μM): 32%; percentage of GFP-silencing relative to siMOCK ([1]; Myristoleyl, 5 μM): −1%
Ac-RK*LRRK*L-NH2 (Ac-RK(NHNH2)LRRK(NHNH2)L-NH2; not fully specified; printed as Ac-RK*LRRK*L-NH2; also: K*2,K*6: native or modified lysine (ε-amide to a linker)) [Peptide 7.2] | 11% | 8% | 14% | 16% |  |  |  |  |  |  |  |  | −18% |  |  |  |  | −56% | −47% | −40% | percentage of GFP-silencing relative to siMOCK ([1]; Dodecanal, 5 μM): 5%; percentage of GFP-silencing relative to siMOCK ([1]; Myristoleyl, 5 μM): 8%; percentage of gene editing, GFP fluorescence intensity decrease (% of reduction) ([3]; Dodecanal, 5 μM): −23%; percentage of gene editing, GFP fluorescence intensity decrease (% of reduction) ([3]; Myristoleyl, 5 μM): −42%; percentage of gene editing, GFP fluorescence intensity decrease (% of reduction) ([3]; Myristoleyl, 15 μM): −21%
